Assay results reported in US7452908B2, “Amide derivatives” (Banyu Pharmaceutical Co., Ltd., priority 1999, dated 2008).

Legend:
[1] = molecular target: T1, human m2 muscarinic acetylcholine receptor expressed in CHO cells (Homo sapiens, UniProt P08172); test: Inhibition of [3H]-N-methylscopolamine binding to muscarinic m2 receptor; conditions: 0.2 nM [3H]-N-methylscopolamine
T1 construct: purchased Receptor Biology, Inc; host or cells: CHO cells
T1 sequence (P08172 1-466): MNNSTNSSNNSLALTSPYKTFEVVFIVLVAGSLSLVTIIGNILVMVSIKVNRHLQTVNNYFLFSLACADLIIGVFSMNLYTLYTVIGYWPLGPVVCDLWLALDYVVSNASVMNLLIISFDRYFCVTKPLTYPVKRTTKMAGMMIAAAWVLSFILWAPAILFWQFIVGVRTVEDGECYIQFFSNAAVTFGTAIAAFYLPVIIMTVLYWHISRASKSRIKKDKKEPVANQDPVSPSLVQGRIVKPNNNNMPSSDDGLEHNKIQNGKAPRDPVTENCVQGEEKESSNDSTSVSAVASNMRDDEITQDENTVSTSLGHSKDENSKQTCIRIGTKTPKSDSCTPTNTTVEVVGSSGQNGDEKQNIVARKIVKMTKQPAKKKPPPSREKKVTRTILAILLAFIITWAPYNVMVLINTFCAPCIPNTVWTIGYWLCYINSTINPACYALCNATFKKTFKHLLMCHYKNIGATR
Description: (§1) These tests were performed according to a modification of the method of Hargreaves, et al. (Br. J. Pharmacol. 107: 494-501, 1992). Namely, muscarinic acetylcholine receptors of human m1, m2, m3, m4 and m5 expressed in CHO cells (Receptor Biology, Inc.) were incubated with 0.2 nM [^3H]-N-methylscopolamine (82Ci/mmol, New England Nuclear, Inc.) and a test compound to be tested in 0.5 ml of 50 mM Tris-HCl, 10 mM MgCl2, 1 mM EDTA solution (pH 7.4) for 120 minutes at room temperature (about 20-25° C.), followed by suction filtration over a glass filter (UniFilter plate-GF/C; Packard). Then the filter was washed four times with 1 ml of ice-cold Tris-HCl buffer and dried at 50° C. for an hour. After adding a scintillator (Microscinti 0; Packard), the radioactivity of [^3H]-N-methylscopolamine binding to the filter was counted with a microplate scintillation counter (TopCount™; Packard). Non-specific receptor binding of [^3H]-N-methylscopolamine was measured by adding 1 μM N-methylscopolamine.

[2] = molecular target: T2, human m1 muscarinic acetylcholine receptor expressed in CHO cells (Homo sapiens, UniProt P11229); test: Inhibition of [3H]-N-methylscopolamine binding to muscarinic m1 receptor; conditions: 0.2 nM [3H]-N-methylscopolamine
T2 construct: purchased Receptor Biology, Inc; host or cells: CHO cells
T2 sequence (P11229 1-460): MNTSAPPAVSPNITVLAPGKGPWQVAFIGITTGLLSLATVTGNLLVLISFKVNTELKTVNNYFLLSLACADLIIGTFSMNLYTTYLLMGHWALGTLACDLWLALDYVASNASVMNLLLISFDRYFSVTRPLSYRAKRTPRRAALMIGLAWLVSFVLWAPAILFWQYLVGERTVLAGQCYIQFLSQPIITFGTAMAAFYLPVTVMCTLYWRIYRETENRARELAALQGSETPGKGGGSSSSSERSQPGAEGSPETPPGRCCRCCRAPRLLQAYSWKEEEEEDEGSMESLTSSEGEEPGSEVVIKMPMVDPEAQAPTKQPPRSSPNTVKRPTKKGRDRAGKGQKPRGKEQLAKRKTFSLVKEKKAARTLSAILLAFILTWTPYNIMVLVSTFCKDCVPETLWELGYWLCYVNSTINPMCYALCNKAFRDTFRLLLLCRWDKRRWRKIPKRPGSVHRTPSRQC
Description: as §1

[3] = molecular target: T3, human m5 muscarinic acetylcholine receptor expressed in CHO cells (Homo sapiens, UniProt P08912); test: Inhibition of [3H]-N-methylscopolamine binding to muscarinic m5 receptor; conditions: 0.2 nM [3H]-N-methylscopolamine
T3 construct: purchased Receptor Biology, Inc; host or cells: CHO cells
T3 sequence (P08912 1-532): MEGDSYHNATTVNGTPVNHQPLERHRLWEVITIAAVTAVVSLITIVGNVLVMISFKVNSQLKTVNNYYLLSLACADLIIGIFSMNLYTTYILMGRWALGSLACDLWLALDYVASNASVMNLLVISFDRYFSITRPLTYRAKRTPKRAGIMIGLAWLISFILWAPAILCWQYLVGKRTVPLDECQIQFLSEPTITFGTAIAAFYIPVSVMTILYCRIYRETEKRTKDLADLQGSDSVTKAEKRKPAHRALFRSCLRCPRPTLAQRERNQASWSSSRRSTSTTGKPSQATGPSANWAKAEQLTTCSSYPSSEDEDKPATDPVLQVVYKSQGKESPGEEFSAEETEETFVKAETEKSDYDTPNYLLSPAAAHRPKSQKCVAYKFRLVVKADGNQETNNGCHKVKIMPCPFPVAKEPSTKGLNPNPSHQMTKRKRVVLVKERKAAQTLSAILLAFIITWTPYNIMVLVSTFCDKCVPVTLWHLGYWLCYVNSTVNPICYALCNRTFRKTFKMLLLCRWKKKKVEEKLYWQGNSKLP
Description: as §1

[4] = molecular target: T4, human m4 muscarinic acetylcholine receptor expressed in CHO cells (Homo sapiens, UniProt P08173); test: Inhibition of [3H]-N-methylscopolamine binding to muscarinic m4 receptor; conditions: 0.2 nM [3H]-N-methylscopolamine
T4 construct: purchased Receptor Biology, Inc; host or cells: CHO cells
T4 sequence (P08173 1-479): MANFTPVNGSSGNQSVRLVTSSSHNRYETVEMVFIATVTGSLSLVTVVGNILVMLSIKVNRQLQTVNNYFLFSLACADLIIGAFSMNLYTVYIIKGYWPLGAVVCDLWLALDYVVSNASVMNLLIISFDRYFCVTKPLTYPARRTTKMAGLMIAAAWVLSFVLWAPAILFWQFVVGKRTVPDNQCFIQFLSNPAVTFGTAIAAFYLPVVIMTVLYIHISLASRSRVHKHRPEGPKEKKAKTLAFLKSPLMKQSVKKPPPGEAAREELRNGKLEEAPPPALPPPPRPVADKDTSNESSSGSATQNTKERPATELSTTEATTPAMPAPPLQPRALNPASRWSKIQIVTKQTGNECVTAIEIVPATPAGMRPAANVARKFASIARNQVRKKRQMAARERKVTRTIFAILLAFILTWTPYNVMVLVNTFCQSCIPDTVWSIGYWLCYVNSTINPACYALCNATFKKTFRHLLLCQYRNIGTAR
Description: as §1

[5] = molecular target: T5, human m3 muscarinic acetylcholine receptor expressed in CHO cells (Homo sapiens, UniProt P20309); test: Inhibition of [3H]-N-methylscopolamine binding to muscarinic m3 receptor; conditions: for Ki: human m3 in CHO cells, 0.2 nM [3H]-N-methylscopolamine; for Selectivity m1/m3: ratio of Ki m1 to Ki m3; for Selectivity m2/m3: ratio of Ki m2 to Ki m3; for Selectivity m4/m3: ratio of Ki m4 to Ki m3; for Selectivity m5/m3: ratio of Ki m5 to Ki m3
T5 construct: purchased Receptor Biology, Inc; host or cells: CHO cells
T5 sequence (P20309 whole entry): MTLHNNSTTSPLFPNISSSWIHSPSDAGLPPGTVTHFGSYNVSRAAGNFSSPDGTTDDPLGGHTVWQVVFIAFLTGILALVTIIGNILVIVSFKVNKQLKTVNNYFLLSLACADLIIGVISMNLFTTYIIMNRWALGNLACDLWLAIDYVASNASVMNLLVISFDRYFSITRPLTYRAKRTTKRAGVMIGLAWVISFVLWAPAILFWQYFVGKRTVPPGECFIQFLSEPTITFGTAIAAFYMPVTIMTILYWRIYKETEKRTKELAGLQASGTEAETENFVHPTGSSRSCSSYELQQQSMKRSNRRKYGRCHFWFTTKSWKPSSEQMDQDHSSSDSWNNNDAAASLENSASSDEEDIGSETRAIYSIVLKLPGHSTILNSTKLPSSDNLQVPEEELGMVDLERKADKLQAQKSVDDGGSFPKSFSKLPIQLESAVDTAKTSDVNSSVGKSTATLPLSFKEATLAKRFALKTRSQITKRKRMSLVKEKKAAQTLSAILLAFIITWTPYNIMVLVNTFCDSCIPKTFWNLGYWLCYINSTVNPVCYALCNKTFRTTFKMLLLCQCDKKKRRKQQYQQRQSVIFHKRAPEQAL
Description: as §1

[6] = molecular target: T6, M3 receptor (Canis lupus familiaris, UniProt A0A8I3N190); test: Antagonism to M3 receptor: bronchodilation in anesthetized dogs (methacholine provocation test); assay type: in vivo, beagle dogs; conditions: inhalation of 1 mg/ml for 10 minutes, methacholine threshold four hours after administration
T6 construct: from tissue; host or cells: whole animal, male beagle dogs (in vivo, airway)
T6 sequence (A0A8I3N190 1-590): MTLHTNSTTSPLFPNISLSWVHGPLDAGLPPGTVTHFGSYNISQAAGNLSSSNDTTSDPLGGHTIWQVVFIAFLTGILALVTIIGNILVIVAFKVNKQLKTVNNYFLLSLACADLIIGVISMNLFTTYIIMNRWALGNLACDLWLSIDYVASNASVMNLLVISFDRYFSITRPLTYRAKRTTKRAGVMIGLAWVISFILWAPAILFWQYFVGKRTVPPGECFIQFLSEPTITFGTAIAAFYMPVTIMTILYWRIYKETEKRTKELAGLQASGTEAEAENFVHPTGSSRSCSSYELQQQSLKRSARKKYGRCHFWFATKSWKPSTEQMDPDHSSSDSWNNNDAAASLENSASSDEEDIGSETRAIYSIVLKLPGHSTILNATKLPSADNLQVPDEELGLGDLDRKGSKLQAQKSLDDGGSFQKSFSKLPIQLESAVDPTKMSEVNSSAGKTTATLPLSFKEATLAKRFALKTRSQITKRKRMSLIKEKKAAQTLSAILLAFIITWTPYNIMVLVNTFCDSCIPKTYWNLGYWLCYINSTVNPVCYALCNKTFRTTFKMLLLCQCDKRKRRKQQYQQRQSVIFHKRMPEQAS
Description: The bronchodilation action of inhaled test compound was evaluated by measuring the compounds' inhibitory action on respiratory resistance-increasing reaction induced by a methacholine provocation test. For the experiment, 12 to 36 months old male beagle dogs (weighing 10-15 kg) were used. After being anesthetized by intravenous pentobarbital administration (30 mg/kg), the dogs were intubated cannulae in their trachea. After their respiration became stable, the cannulae were connected with Astograph (TCK-6100H, Chest) and a methacholine provocation test by 3 Hz oscillation method was conducted. […] The methacholine concentration at which the respiratory resistance increased to twice the initial value was recorded as the methacholine reaction threshold value. Before evaluating the test compounds, the methacholine reaction threshold value^1) under no drug treatment was measured at least twice at a week's interval, to select the dogs showing reproducible reaction.
The inhaling administration of each test compound (1 mg/ml) was conducted for 10 minutes under pentobarbital anesthetization (30 mg/kg, i.v.), with the nebulizer in the Astograph. […] The bronchodilator activity (shift value) of each tested compound was determined according to the following equation: […]

| SMILES | Ki [1] [nM] | Ki [2] [nM] | Ki [3] [nM] | Ki [4] [nM] | Ki [5] [nM] | Selectivity m1/m3 [5] [times] | Selectivity m2/m3 [5] [times] | Selectivity m4/m3 [5] [times] | Selectivity m5/m3 [5] [times] | Shift (fold) Airway constriction M3 [6] [fold] |
| --- | --- | --- | --- | --- | --- | --- | --- | --- | --- | --- |
| CCCCCN1CCC[C@H](CNC(=O)CCNC(=O)CNC(=O)CC(c2ccccc2)(c2ccccc2)c2ccccc2)C1 [Example 6, N-{2-(3-{((3R)-1-pentyl-3-piperidyl)methyl}amino-3-oxopropyl)amino-2-oxoethyl}-3,3,3-triphenylpropanamide] | 250 | 860 | 82 | 66 | 1.8 | 480 | 140 | 37 | 46 |  |
| O=C(CCNC(=O)[C@H](Cc1c[nH]cn1)NC(=O)CC(c1ccccc1)(c1ccccc1)c1ccccc1)NC[C@H]1CCCN(CC2CCCCC2)C1 [Example 19, N-{(1S)-2-(3-{((3R)-1-cyclohexylmethyl-3-piperidyl)methyl}-amino-3-oxopropyl)amino-1-(1H-imidazol-4-ylmethyl)-2-oxoethyl}-3,3,3-triphenylpropanamide] | 30 | 270 | 19 | 8.1 | 0.75 | 360 | 40 | 11 | 25 |  |
| O=C(CCCCCNC(=O)CC(c1ccccc1)(c1ccccc1)c1ccccc1)NC[C@H]1CCCN(CC2CCCCC2)C1 [Example 28, N-(6-{((3R)-1-cyclohexylmethyl-3-piperidyl)methyl}amino-6-oxohexyl)-3,3,3-triphenylpropanamide] | 85 | 130 | 220 | 36 | 1.2 | 110 | 71 | 30 | 180 |  |
| CC[N+]1(CC)CCC[C@H](CNC(=O)[C@H]2CCCN2C(=O)[C@@H]2C[C@@H](O)CN2C(=O)CC(c2ccc(Cl)cc2)(c2ccc(Cl)cc2)c2ccc(Cl)cc2)C1.[Cl-] [Example 144, (3R)-1,1-diethyl-3-({({(2R)-1-({(2S,4R)-4-hydroxy-1-{3,3,3-tris-(4-chlorophenyl)propanoyl}-2-pyrrolidinyl}carbonyl)-2-pyrrolidinyl}-carbonyl)amino}methyl)piperidinium chloride] | 110 | 110 | 230 | 27 | 1.3 | 85 | 85 | 21 | 180 |  |
| CCCCCCC[N+]1(C)CCC[C@H](CNC(=O)CCNC(=O)CNC(=O)CC(c2ccccc2)(c2ccccc2)c2ccccc2)C1.[Br-] (stereo partly drawn) [Example 146, (3R)-1-heptyl-1-methyl-3-({(3-{(2-{(3,3,3-triphenylpropanoyl)amino}acetyl)amino}propanoyl)amino}methyl)piperidinium bromide] | 1000 | 1200 | 490 | 360 | 15 | 80 | 67 | 24 | 33 |  |
| CC[C@H](C)C[N+]1(CC)CCC[C@@H](CNC(=O)CCCCCNC(=O)CC(c2ccccc2)(c2ccccc2)c2ccccc2)C1.[Cl-] (stereo partly drawn) [Example 150, (3S)-1-ethyl-1-{(2S)-2-methylbutyl}-3-({(6-{(3,3,3-triphenylpropanoyl)amino}hexanoyl)amino}methyl)piperidinium chloride] | 490 | 150 | 850 | 310 | 4.7 | 32 | 100 | 66 | 180 |  |
| O=C(NC[C@H]1CCC[N+]2(CCCC2)C1)[C@H]1CCCN1C(=O)[C@@H]1C[C@@H](O)CN1C(=O)CC(c1ccccc1)(c1ccccc1)c1ccccc1.[Cl-] [Example 151, (7R)-7-({({(2R)-1-({(2S,4R)-4-hydroxy-1-(3,3,3-triphenylpropanoyl)-2-pyrrolidinyl}carbonyl)-2-pyrrolidinyl}carbonyl)amino}methyl)-5-azoniaspiro [4.5]decane chloride] | 460 | 450 | 890 | 74 | 3.5 | 130 | 130 | 21 | 250 | >40.0 |
